In patent US9062041B2 (Bayer Intellectual Property GmbH, priority 2011, dated 2015):

How the values were obtained:
Assay type in all cases: cell-based
[1] = molecular target: EP2 subtype of the human PGE2 receptor (Homo sapiens, UniProt P43116); test: cAMP antagonism test on the human EP2 receptor (HTRF cAMP detection); conditions: hEP2 receptor, read-out: Antagonism hEP2 IC50
Outline: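 Read-out is a competitive HTRF for cAMP: lysate cAMP displaces cAMP-d2 from Eu cryptate-labelled antibody, and antagonism raises the 665/620 nm ratio. Compound (0.8 nM–16.5 μM) added to EP2 cells 20 min at RT before 60 min PGE2 challenge (3× stock 1.5 nM) with IBMX, followed by 20 min lysis.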

[2] = molecular target: EP4 subtype of the human PGE2 receptor (Homo sapiens, UniProt P35408); test: cAMP antagonism test on the human EP4 receptor (HTRF cAMP detection); conditions: selectivity towards hEP4, IC50 measured by cAMP antagonism test
EP4 subtype of the human PGE2 receptor, sequence (P35408 whole entry): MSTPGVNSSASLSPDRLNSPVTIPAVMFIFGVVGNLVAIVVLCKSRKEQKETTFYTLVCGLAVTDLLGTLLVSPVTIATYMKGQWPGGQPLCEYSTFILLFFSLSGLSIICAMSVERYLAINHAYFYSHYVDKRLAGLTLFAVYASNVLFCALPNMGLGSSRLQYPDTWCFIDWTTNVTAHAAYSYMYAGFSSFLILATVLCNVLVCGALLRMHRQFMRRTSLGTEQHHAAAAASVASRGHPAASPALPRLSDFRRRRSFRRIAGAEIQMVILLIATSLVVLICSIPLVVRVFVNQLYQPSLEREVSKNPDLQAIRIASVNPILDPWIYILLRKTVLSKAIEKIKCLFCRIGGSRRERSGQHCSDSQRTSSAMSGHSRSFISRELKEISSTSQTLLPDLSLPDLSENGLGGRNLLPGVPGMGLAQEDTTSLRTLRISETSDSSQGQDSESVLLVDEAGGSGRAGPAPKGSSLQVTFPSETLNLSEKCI
Outline: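 Competitive HTRF cAMP read-out (cAMP-d2 vs Eu-cryptate anti-cAMP antibody, 665/620 nm ratio) on lysed human EP4 cells. Compound (0.8 nM–16.5 μM) applied 20 min at RT before 60 min PGE2 challenge (3× solution 0.3 nM, IBMX present); 20 min lysis precedes reading.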

human PGD receptor = molecular target: T1, human PGD receptor (Homo sapiens, UniProt Q13258); test: cAMP antagonism test on the human prostaglandin D receptor (HTRF cAMP detection); conditions: selectivity towards hDP, IC50 measured by cAMP antagonism test
T1 sequence (Q13258 1-359): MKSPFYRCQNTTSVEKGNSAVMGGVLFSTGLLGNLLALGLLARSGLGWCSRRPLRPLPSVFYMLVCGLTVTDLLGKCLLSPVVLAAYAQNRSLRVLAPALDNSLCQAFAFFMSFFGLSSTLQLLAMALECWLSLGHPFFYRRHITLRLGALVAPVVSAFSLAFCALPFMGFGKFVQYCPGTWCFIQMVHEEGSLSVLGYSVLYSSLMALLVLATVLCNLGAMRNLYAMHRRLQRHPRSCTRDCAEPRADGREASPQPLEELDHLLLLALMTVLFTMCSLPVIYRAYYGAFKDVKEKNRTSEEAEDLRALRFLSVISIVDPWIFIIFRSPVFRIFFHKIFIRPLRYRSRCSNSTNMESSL
Outline: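 HTRF competition read-out (665/620 nm ratio ×10000), where higher FRET means less cAMP, i.e. antagonism. Compounds (0.8 nM–16.5 μM) were preincubated 20 min at RT with cells and cAMP-d2, PGD2 (3× solution, 6 nM) in IBMX-containing PBS added for 30 min at RT, then cells lysed 20 min.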

EP2 subtype of the human PGE2 receptor, sequence (P43116 whole entry): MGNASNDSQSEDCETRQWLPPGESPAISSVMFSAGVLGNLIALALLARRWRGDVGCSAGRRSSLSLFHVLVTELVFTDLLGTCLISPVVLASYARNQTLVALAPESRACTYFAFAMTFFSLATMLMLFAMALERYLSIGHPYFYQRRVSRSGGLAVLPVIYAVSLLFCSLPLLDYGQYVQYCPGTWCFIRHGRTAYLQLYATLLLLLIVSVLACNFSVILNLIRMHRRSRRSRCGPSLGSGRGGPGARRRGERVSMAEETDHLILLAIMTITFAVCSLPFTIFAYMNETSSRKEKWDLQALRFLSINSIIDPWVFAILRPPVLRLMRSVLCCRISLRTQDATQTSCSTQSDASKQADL

COCCNC(=O)c1ccc2nn(CC3CN(C(=O)c4ccc(Cl)cc4F)C3)cc2c1C [Example 121, 2-{[1-(4-chloro-2-fluorobenzoyl)azetidin-3-yl]methyl}-N-(2-methoxyethyl)-4-methyl-2H-indazol-5-carboxamide]
IC50 [1]: 15.5 nM
Selectivity hEP2/hEP4 [2]: xxx (xxx > 100)
Selectivity hEP2/hDP (human PGD receptor): xxx (xxx > 100)

COCCNC(=O)c1ccc2nn(CC3CCN(C(=O)c4ccc(C(C)(C)O)cc4)CC3)cc2c1C [Example 334, 2-({1-[4-(1-hydroxy-1-methylethyl)benzoyl]piperidin-4-yl}methyl)-N-(2-methoxyethyl)-4-methyl-2H-indazol-5-carboxamide]
IC50 [1]: 74.2 nM
Selectivity hEP2/hEP4 [2]: xxx (xxx > 100)
Selectivity hEP2/hDP (human PGD receptor): xxx (xxx > 100)

COCCNC(=O)c1ccc2nn(CC3CCN(C(=O)c4ccc(OC5CCOCC5)cc4)CC3)cc2c1C [Example 353, N-(2-methoxyethyl)-4-methyl-2-({1-[4-(3,4,5,6-tetrahydro-2H-pyran-4-yloxy)-benzoyl]piperidin-4-yl}methyl)-2H-indazol-5-carboxamide]
IC50 [1]: 50.2 nM
Selectivity hEP2/hEP4 [2]: xxx (xxx > 100)
Selectivity hEP2/hDP (human PGD receptor): xxx (xxx > 100)

Cc1c(C(=O)NCCS(C)(=O)=O)ccc2nn(CC3CCN(C(=O)c4ccc(Br)cc4)CC3)cc12 [Example 395, 2-{[1-(4-bromobenzoyl)piperidin-4-yl]methyl}-N-(2-mesylethyl)-4-methyl-2H-indazol-5-carboxamide]
IC50 [1]: 30.4 nM
Selectivity hEP2/hEP4 [2]: xxx (xxx > 100)
Selectivity hEP2/hDP (human PGD receptor): xxx (xxx > 100)

Cc1c(C(=O)NCC(F)(F)F)ccc2nn(CC3CCN(C(=O)c4ccc(Oc5ccc(C#N)cc5)cc4)CC3)cc12 [Example 306, 2-({1-[4-(4-cyanophenoxy)benzoyl]piperidin-4-yl}methyl)-4-methyl-N-(2,2,2-trifluoroethyl)-2H-indazol-5-carboxamide]
IC50 [1]: 76.6 nM
Selectivity hEP2/hEP4 [2]: xxx (xxx > 100)
Selectivity hEP2/hDP (human PGD receptor): xxx (xxx > 100)

Cc1cc2nn(CC3CN(C(=O)c4ccc(-c5ccc(F)cc5)cc4)C3)cc2cc1C(=O)NCC(F)(F)F [Example 203, 2-({1-[(4′-fluorobiphenyl-4-yl)carbonyl]azetidin-3-yl}methyl)-6-methyl-N-(2,2,2-trifluoroethyl)-2H-indazol-5-carboxamide]
IC50 [1]: 85.7 nM
Selectivity hEP2/hEP4 [2]: xxx (xxx > 100)
Selectivity hEP2/hDP (human PGD receptor): xxx (xxx > 100)

Cc1c(C(=O)NCCO)ccc2nn(CC3CCN(C(=O)c4ccc(Cl)cc4)CC3)cc12 [Example 252, 2-{[1-(4-chlorobenzoyl)piperidin-4-yl]methyl}-N-(2-hydroxyethyl)-4-methyl-2H-indazol-5-carboxamide]
IC50 [1]: 295 nM
Selectivity hEP2/hEP4 [2]: xx (xx: 10-100)
Selectivity hEP2/hDP (human PGD receptor): xx (xx: 10-100)

COCCNC(=O)c1ccc2nn(CC3CCN(C(=O)c4ccc(-c5ccno5)cc4)CC3)cc2c1C [Example 37, N-(2-methoxyethyl)-4-methyl-2-({1-[4-(isoxazol-5-yl)-benzoyl]piperidin-4-yl}methyl)-2H-indazol-5-carboxamide]
IC50 [1]: 104 nM
Selectivity hEP2/hEP4 [2]: xxx (xxx > 100)
Selectivity hEP2/hDP (human PGD receptor): xxx (xxx > 100)

Cc1c(C(=O)NCCOCC2CC2)ccc2nn(CC3CCN(C(=O)c4ccc(C(F)(F)F)cc4)CC3)cc12 [Example 87, N-[2-(cyclopropyl-methoxy)ethyl]-4-methyl-2-({l-[4-(tri-fluoromethyl)benzoyl]piperidin-4-yl}-methyl)-2H-indazol-5-carboxamide]
IC50 [1]: 24 nM
Selectivity hEP2/hEP4 [2]: xxx (xxx > 100)
Selectivity hEP2/hDP (human PGD receptor): xxx (xxx > 100)

Cc1c(C(=O)NCC(F)(F)F)ccc2nn(CC3CCN(C(=O)c4ccc(N5CCOCC5)cc4)CC3)cc12 [Example 287, 4-methyl-2-{[1-(4-morpholinobenzoyl)piperidin-4-yl]methyl}-N-(2,2,2-trifluoro-ethyl)-2H-indazol-5-carboxamide]
IC50 [1]: 1050 nM
Selectivity hEP2/hEP4 [2]: xx (xx: 10-100)
Selectivity hEP2/hDP (human PGD receptor): xx (xx: 10-100)

COCCNC(=O)c1ccc2nn(CC3CN(C(=O)c4ccc(Oc5ccc(C(F)(F)F)cn5)cc4)C3)cc2c1C [Example 174, N-(2-methoxyethyl)-4-methyl-2-{[1-(4-{[5-(trifluoromethyl)pyridin-2-yl]oxy}benzoyl)azetidin-3-yl]methyl}-2H-indazol-5-carboxamide]
IC50 [1]: 6.58 nM
Selectivity hEP2/hEP4 [2]: xxx (xxx > 100)
Selectivity hEP2/hDP (human PGD receptor): xxx (xxx > 100)

COCCNC(=O)c1ccc2nn(CC3CCN(C(=O)c4ccc(-c5cc(F)cc(F)c5)cc4)CC3)cc2c1C [Example 389, 2-({1-[(3′,5′-difluorobiphenyl-4-yl)carbonyl]piperidin-4-yl}methyl)-N-(2-methoxyethyl)-4-methyl-2H-indazol-5-carboxamide]
IC50 [1]: 4.51 nM
Selectivity hEP2/hEP4 [2]: xxx (xxx > 100)
Selectivity hEP2/hDP (human PGD receptor): xxx (xxx > 100)

O=C(NCCOCC1CC1)c1ccc2nn(CC3CCN(C(=O)c4ccc(-c5ccc(F)cc5)cc4)CC3)cc2c1OCC(F)(F)F [Example 237, N-[2-(cyclopropylmethoxy)ethyl]-2-({1-[(4′-fluorobiphenyl-4-yl)carbonyl]piperidin-4-yl}methyl)-4-(2,2,2-trifluoroethoxy)-2H-indazol-5-carboxamide]
IC50 [1]: 31 nM
Selectivity hEP2/hEP4 [2]: xxx (xxx > 100)
Selectivity hEP2/hDP (human PGD receptor): xxx (xxx > 100)

COCCNC(=O)c1ccc2nn(CC3CCN(C(=O)c4ccc(OC)cc4)CC3)cc2c1C [Example 21, 2-{[1-(4-methoxy-benzoyl)piperidin-4-yl]methyl}-N-(2-methoxyethyl)-4-methyl-2H-indazol-5-carboxamide]
IC50 [1]: 35.8 nM
Selectivity hEP2/hEP4 [2]: xxx (xxx > 100)
Selectivity hEP2/hDP (human PGD receptor): xxx (xxx > 100)

COCCNC(=O)c1cc2cn(CC3CCN(C(=O)c4ccc(Cl)cc4F)CC3)nc2cc1C [Example 207, 2-{[1-(4-chloro-2-fluorobenzoyl)piperidin-4-yl]methyl}-N-(2-methoxyethyl)-6-methyl-2H-indazol-5-carboxamide]
IC50 [1]: 30.3 nM
Selectivity hEP2/hEP4 [2]: xxx (xxx > 100)
Selectivity hEP2/hDP (human PGD receptor): xxx (xxx > 100)

COCCNC(=O)c1ccc2nn(CC3CCN(C(=O)c4ccc(-c5ccccc5OC(F)(F)F)cc4F)CC3)cc2c1C [Example 46, 2-[(1-{[3-fluoro-2′-(trifluoromethoxy)-biphenyl-4-yl]-carbonyl}piperidin-4-yl)methyl]-N-(2-methoxyethyl)-4-methyl-2H-indazol-5-carboxamide]
IC50 [1]: 4.91 nM
Selectivity hEP2/hEP4 [2]: xxx (xxx > 100)
Selectivity hEP2/hDP (human PGD receptor): xxx (xxx > 100)
